The values that follow come from publication PMC12563681, “Cecytb-2, a Cytochrome b561 Homolog, Functions as an Ascorbate-Specific Transmembrane Ferric Reductase at Intestinal Lumens of Caenorhabditis elegans” (Biomolecules, 2025).

Assay [1] has as its target T1, Cecytb-2 (Cecytb-2-H6) (Caenorhabditis elegans, UniProt O16271).
T1 sequence (O16271 1-251): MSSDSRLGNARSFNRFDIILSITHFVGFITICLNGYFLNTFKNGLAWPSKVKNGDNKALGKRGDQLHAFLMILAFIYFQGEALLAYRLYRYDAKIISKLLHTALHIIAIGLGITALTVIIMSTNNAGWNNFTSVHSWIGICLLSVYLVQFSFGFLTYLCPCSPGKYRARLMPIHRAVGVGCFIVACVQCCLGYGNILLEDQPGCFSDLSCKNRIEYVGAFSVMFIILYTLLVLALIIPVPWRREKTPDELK
The experiment in a line: pulse radiolysis, heme oxidation at […] nm. Set-up: gene CELE_F39G3.5. The following applies: electron acceptor; 10 mM AsA present, pH 7.0, 1% octyl glucoside.

The target of assay [2] is T1, Cecytb-2 (Cecytb-2-H6). Briefly: stopped-flow heme reduction at […] nm. It is filed as biochemical. The following applies: electron donor; pH 7.0, 1% octyl glucoside, about 25 °C. Set-up: gene CELE_F39G3.5; full length, 251 residues, 28,127 Da native; expressed in Pichia pastoris GS115, purified from microsomes in octyl glucoside; Ser2, Ser3 at N-terminus; two b hemes.

As for `[O]C1=C(O)[C@@H]([C@@H](O)CO)OC1=O` [MDA radical], in assay [1], the “pulse radiolysis, heme oxidation at 435 nm” value is “heme oxidation of Cecytb-2-H6 by the generated MDA radical”.

On to `O=C1O[C@H]([C@@H](O)CO)C(O)=C1O` [AsA], for which the “stopped-flow heme reduction at 426 nm” value in assay [2] is given as “second-order rate constant (k1) for the heme reduction with AsA was estimated”.
